According to US20250281649A1, “PROBE DIRECTED TO ENZYME ALDH1A3 AND USE THEREOF IN THE DIAGNOSIS OF GLIOBLASTOMA” (Universita' Degli Studi Del Piemonte Orientale "A. Avogadro", priority 2021, published 2025):

Molecular target: T1, ALDH1A3 (Homo sapiens, UniProt P47895)
T1 construct: His-tag; made in house; host or cells: bacterial cells
T1 sequence (P47895 1-512): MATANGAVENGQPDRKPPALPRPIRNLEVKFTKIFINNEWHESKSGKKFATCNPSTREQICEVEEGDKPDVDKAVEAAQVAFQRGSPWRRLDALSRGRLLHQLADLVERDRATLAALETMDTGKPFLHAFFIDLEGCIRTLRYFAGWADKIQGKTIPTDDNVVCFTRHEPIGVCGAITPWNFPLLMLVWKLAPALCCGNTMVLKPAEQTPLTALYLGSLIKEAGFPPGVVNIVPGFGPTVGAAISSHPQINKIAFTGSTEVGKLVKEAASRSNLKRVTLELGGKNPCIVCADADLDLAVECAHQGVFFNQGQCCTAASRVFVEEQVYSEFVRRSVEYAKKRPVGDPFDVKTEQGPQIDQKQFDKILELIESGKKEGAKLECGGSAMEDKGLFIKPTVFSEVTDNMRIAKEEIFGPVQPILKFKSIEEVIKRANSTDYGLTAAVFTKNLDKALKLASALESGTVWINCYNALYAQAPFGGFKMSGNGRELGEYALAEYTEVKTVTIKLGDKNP
Assay: Ki evaluation, competitive inhibition vs acetaldehyde, NADH formation
Format: biochemical
Details: competitive vs acetaldehyde 1-20 mM
Protocol: A common protocol to express and purify all three members of the ALDHIA subfamily has been optimized. Briefly, induced cells, collected by centrifugation, were re-suspended in an appropriate volume of lysis buffer (50 mM Na2HPO4, 300 mM NaCl, 1 mM β-mercaptoethanol, 20 mM imidazole, pH 7.5) added of benzonase nuclease (250 U/μL) and Protease inhibitor cocktail from SIGMA. After ultracentrifugation, the clarified sample was purified by a His-tag affinity chromatography followed by size-exclusion chromatography, using an AKTA FPLC system, at 4° C. To evaluate the purity and homogeneity of the protein, after each purification step, eluted d fractions were analyzed by SDS-PAGE and the protein quantification was always determined by Bradford protein assay.
Ki evaluation: on a Tecan—SUNRISE, probe 13 was tested as a possible competitive inhibitor, at a variable concentration (200, 100, 50, 10, 1 and 0 μM). In the same plate, different the acetaldehyde was tested at concentrations (1, 2.5, 5, 10, 15 and 20 mM) to describe the competitive mechanism. The recipe of the buffer reaction was the same as described before. The analysis was conducted measuring the NADH formation, that has a specific absorbance wavelength (340 nm). The test was performed in triplicate only with the ALDH1A3.

- Ki: 900 nM
Structure (SMILES): COc1cc(/C=C/C(=O)/C=C(O)/C=C/c2ccc(OCc3cn(CCOc4ccc(C=O)cc4)nn3)c(OC)c2)ccc1O [Compound 13]
